In patent publication US11191754B2, “Inhibitors of nucleotidyl transferases and uses in herpes and hepatitis viral infections therefor” (Saint Louis University, priority 2015, dated 2021):
Where two headings read alike, the source gives them in different places.

Key:
HBV RNAseH = test: Biochemical RNAseH assay with patient-derived variant HBV RNAseH enzymes; parameters: species or system hepatitis B virus; conditions: four genotype D patient-derived enzymes; compound at its IC50 (FIGS. 5A & 5B)
Protocol: RNaseH activity was measured using an oligonucleotide-directed RNA cleavage assay as previously described in Hu, et al., Tavis, et al., and Cai, et al. (2013; 2013; and 2014, respectfully). Briefly, 6 μL protein extract was mixed on ice with an internally ^32P-labeled 264 nt RNA derived from the Duck Hepatitis B Virus genome (DRF+ RNA) plus 3 μg oligonucleotide D2507- or its inverse-complement oligonucleotide D2526+ as a negative control. This mixture was incubated with test compounds in 50 mM Tris pH 8.0, 190 mM NaCl, 5 mM MgCl2, 3.5 mM DTT, 0.05% NP40, 6% glycerol, and 1% DMSO at 42° C. for 90 minutes. Cleavage products were resolved by denaturing polyacrylamide gel electrophoresis, detected by autoradiography, and quantified using ImageJ. Non-specific background values were determined from the incorrect oligonucleotide negative control lane and subtracted from all experimental values. IC50 values were then calculated with GraphPad Prism using three-parameter log(inhibitor) vs. response non-linear curve fitting with the curve minimum set to zero to reflect background subtraction.
HBV has 8 genotypes differing in sequence by 8%. Genetic diversity in the RNAseH domain is about 6%, which is easily high enough to modulate viral sensitivity to RNAseH inhibitors. […]

HBV [1] = test: Chou-Talalay combination analysis with Lamivudine against HBV replication; assay type: cell-based, hepatitis B virus; conditions: together with Lamivudine; CI <1.0 indicates synergy
Excerpt: Current nucleos(t)ide analog therapy for HBV has converted hepatitis type B from an implacably progressing illness to a controllable disease. However, patients are only very rarely cured, in part due to the incomplete inhibition of HBV replication. The inventors hypothesized that the novel RNaseH inhibitors would work synergistically with the existing nucleos(t)ide analogs because the two classes of drugs target physically distinct active sites on the viral polymerase protein. […] RNAseH inhibitors from two different chemical classes were employed, compound #1 [2-hydroxyisoquinoline-1,3(2H,4H)-dione], an HID, and #46 (β-thujaplicinol), an α-hydroxytropolone, were tested. Chou-Talaly analysis yields a combination index (CI). CI values <1.0 indicate synergy, CIs of approximately 1.0 indicate additive interactions, and CI values >1.0 indicate antagonism. CI values are calculated at various efficacy levels (EC50, EC75, EC90, and EC95), and a weighted CI value favoring higher efficacy levels is also generated. FIGS. 4A & 4B show the results of four experiments employing compound #1 and three with compound #46. […] Therefore, RNAseH inhibitors act strongly synergistically with an approved nucleos(t)ide analog drug against HBV.

[2] = Mouse liver microsome assay; assay type: in vitro ADME; conditions: for ER: extraction ratio; for ER / Non-P450 turn-over / half-life at 1 μM: mouse liver microsomes; for half-life at 1 μM / CLint scaled at 1 μM: 1 μM compound; for half-life at 1 μM: read-out: t ½; for CLint scaled at 1 μM: mouse
Protocol: Microsomal incubations are run at a final P450 concentration of 0.25 μM. […] The mixture is prewarmed for 5 min at 37° C. To initiate the reaction a 12 mM stock of NAPDH (1.2 mM, final concentration) is added to the warmed microsomal mixture and aliquots are removed at 0, 5, 10, 20 and 30 min. […] Samples are vortexed and spun down at 3200 rpm for 5 min. The supernant is transferred to 96-deep well plates and run on LC/MS/MS.

[3] = MTT cytotoxicity assay in HepDES19 cells; assay type: cell-based; conditions: human
Protocol: 1.0×10^4 HepDES19 cells per well were seeded in 96-well plates and incubated in DMEM with 10% FBS plus 1% P/S, 1% non-essential amino acids, and 1% glutamine. Compounds were diluted in medium to the indicated concentrations plus 1% DMSO and added to cells 24 hours after plating, with each concentration tested in triplicate. Medium containing the compound was refreshed daily for the next two days. Thiazolyl blue tetrazolium bromide (MTT, Sigma-Aldrich) was added to 0.25 mg/mL, the cultures were incubated for 60 minutes, metabolites were solubilized in acidic isopropanol, and absorbance was read at 570 nm.

HBV [4] = test: HBV replication assay in HepDES19 cells; assay type: cell-based, hepatitis B virus; parameters: key to Qualitative HBV replication inhibition assay: **: + DNA suppression <25% and − DNA suppression >60%; *: + DNA suppression <50% of − DNA suppression; conditions: for EC50: Hepatitis B virus, HBV replication, HepDES19 cells; for Qualitative HBV replication inhibition assay: plus- vs minus-polarity DNA strand suppression
Protocol: Inhibition of HBV replication was measured in HepDES19 cells as previously described in Cai, et al. (2014). Cells were seeded into 6-well plates and incubated in DMEM/F12, 10% fetal bovine serum (FBS), 1% penicillin/streptomycin (P/S) with 1 μg/mL tetracycline. Tetracycline was withdrawn after 24 hours. The test compound was applied to duplicate wells 48 hours later in medium containing a final DMSO concentration of 1%, and medium containing the compound was refreshed daily for the following two days. Cells were harvested and non-encapsidated nucleic acids were digested with micrococcal nuclease (New England Biolabs). HBV DNA was purified from capsids using QIAamp Cador Pathogen Mini Kit (Qiagen) with proteinase K incubation overnight at 37° C. TaqMan PCR was performed for 40 cycles at an annealing temperature of 60° C. Primers and probe (IDT Inc.) for the plus-polarity strand were: 5′[…]3′ (SEQ ID NO: 1); 5′[…]3′ (SEQ ID NO: 2); 5′/56-FAM/[…]/ZEN/[…]/3IABkFQ (SEQ ID NO: 3). Primers and probe for the minus-polarity strand were: 5′[…]3′ (SEQ ID NO: 4; 5′[…]3′ (SEQ ID NO: 5); 5′/56-FAM/[…]/ZEN/[…]/3IABkFQ (SEQ ID NO: 6).

HSV-1 = test: Anti-HSV-1 replication assay (virus yield by plaque assay on Vero cells); assay type: cell-based, herpes simplex virus 1 (HSV-1); conditions: for HSV-1 Log10 suppression 5 μM / HSV-1 Log10 suppression 50 μM: Vero cells, moi 0.1, 24 h, relative to DMSO control
Protocol: (§1) Vero cells were maintained in Dulbecco's modified Eagle's medium (DMEM) containing 3% newborn calf serum, 3% bovine growth serum, 2 mM L-glutamine and 100 IU/mL penicillin and 0.1 mg/mL streptomycin (P/S). HSV-1 #6 and HSV-2 #1 are de-identified clinical isolates from the Saint Louis University Hospital. Stocks were prepared after a single passage in cell culture and were titered by standard plaque assay (Knipe and Spang, 1982). Wild-type HSV-2 used in FIG. 3 was laboratory strain 333. […] Virus stocks were grown and titered on Vero cells (Morrison and Knipe, 1996).
(§2) Compounds to be screened were diluted in PBS supplemented to contain 2% newborn calf serum and 1% glutamine, and added in 100 μL volume to confluent cell monolayers in 24-well cluster plates. Immediately thereafter HSV-1 and HSV-2, diluted in the supplemented PBS medium, were added to the wells in 50 μl volume such that the final concentration of compound was 50 μM, 5 μM and 1 μM and the multiplicity of infection was 0.1. The plates were incubated at 37° C. for 1 hour and then virus-containing inoculum was removed and the wells were washed once in PBS. Compound, diluted to 50 μM, 5 μM and 1 μM in DMEM supplemented to contain 2% newborn calf serum and 1% each penicillin/streptomycin, was added at 0.5 mL/well. Plates were incubated at 37° C. an additional 23 hours, and then the plates were visually inspected through a phase contrast microscope for cytopathic effect, and for toxic effect. The entire contents of each well were collected by scraping. Samples were frozen at −80° C., and then subsequently thawed, sonicated, and infectious virus titer was determined by standard plaque assay on Vero cell monolayers. Because the compounds were dissolved at 10 mM in 100% DMSO, equivalent dilutions of DMSO were added to additional wells as a control for effects of the diluent. Each experiment was repeated once. EC50 values were determined as above except that serial dilutions of the compound to be tested were prepared starting at 50 μM. The inhibitory values were calculated by non-linear curve-fitting in GraphPad Prism.

HSV-2 = test: Anti-HSV-2 replication assay (virus yield by plaque assay on Vero cells); assay type: cell-based, herpes simplex virus 2 (HSV-2); conditions: for HSV-2 Log10 suppression 5 μM / HSV-2 Log10 suppression 50 μM: Vero cells, moi 0.1, 24 h, relative to DMSO control
Protocol: as §1, §2

in vitro = assay type: cell-based; conditions: African green monkey
Protocol: Qualitative assessments of cytotoxicity were done visually by inspecting the cells in the primary screening assays. For the quantitative assays, cells were plated in 96-well plates at 1.0×10^4 per well. The next day the compounds were added at 0.78 to 100 μM in a final concentration of 1% (v/v) DMSO, and the cells were incubated for 24 hours under conditions identical to those employed for the viral replication inhibition assays. Mitochondrial toxicity was measured by incubating the cells with 0.25 mg/mL thiazolyl blue tetrazolium bromide (MTT, SigmaAldrich Chemical Co.), the cultures were incubated for 60 min, metabolites were solubilized in acidic isopropanol, and absorbance was read at 570 nm. CC50 values were calculated by non-linear curve fitting using GraphPad Prism.
A quantitative toxicity measurement was conducted. Toxicity was assessed by measuring release of intracellular proteases into the culture medium due to cellular lysis. Cells were plated in 96-well plates at 1.0×10^4 per well. The next day compound was added in concentrations ranging from 0.78 to 100 μM in a final concentration of 1% (v/v) DMSO. The cells were incubated for 24 hours under conditions identical to those employed for the viral replication inhibition assays, and then […] according to the manufacturer's instructions. […]

[5] = system: TK-deficient mutant of HSV-2 strain 333, ΔTK-; test: Replication of TK-deficient HSV-2 mutant in Vero cells; assay type: cell-based, herpes simplex virus 2 (HSV-2); conditions: 5 μM, 24 h (FIG. 3)
Protocol: Vero cells were maintained in Dulbecco's modified Eagle's medium (DMEM) containing 3% newborn calf serum, 3% bovine growth serum, 2 mM L-glutamine and 100 IU/mL penicillin and 0.1 mg/mL streptomycin (P/S). HSV-1 #6 and HSV-2 #1 are de-identified clinical isolates from the Saint Louis University Hospital. Stocks were prepared after a single passage in cell culture and were titered by standard plaque assay (Knipe and Spang, 1982). Wild-type HSV-2 used in FIG. 3 was laboratory strain 333. The TK-deficient mutant of HSV-2 strain 333, ΔTK-, contains a 180-bp KpnI-KpnI deletion in the UL23 open reading frame that abrogates TK activity (McDermott, et al, 1984). ΔTK—was the generous gift of Jim Smiley. Virus stocks were grown and titered on Vero cells (Morrison and Knipe, 1996).
ACV is a nucleoside analog prodrug that must be phosphorylated by the viral thymidine kinase (TK) for it to become a substrate for the viral DNA polymerase (Elion, et al., 1977). HSV TK-deficient mutants are therefore insensitive to ACV. […] Vero cells were infected with a laboratory strain of HSV-2 and an engineered TK-deficient mutant of the same strain. […] ACV 5 μM inhibited wild-type HSV-2 replication 100-fold, but it had little effect on the TK-mutant (FIG. 3).

| Structure (SMILES) | CC50 at 3 days [3] [µM] | EC50 (HBV [4]) [µM] | Qualitative HBV replication inhibition assay (HBV [4]) | HSV-1 Log10 suppression 5 μM (HSV-1) [log10] | HSV-1 Log10 suppression 50 μM (HSV-1) [log10] | HSV-2 Log10 suppression 5 μM (HSV-2) [log10] | HSV-2 Log10 suppression 50 μM (HSV-2) [log10] | other results |
| --- | --- | --- | --- | --- | --- | --- | --- | --- |
| O=C1Cc2ccccc2C(=O)N1O [#1, 2-hydroxyisoquinoline-1,3(2H,4H)-dione] |  |  |  |  |  |  |  | inhibition of HBV RNAseH (HBV RNAseH): about 50%; weighted combination index (CI) (HBV [1]): 0.70±0.1 |
| Cc1cc(C2CCCCC2)n(O)c(=O)c1 [#41] |  |  |  |  |  |  |  | ER [2]: 0.16; Non-P450 turn-over [2]: No; half-life at 1 μM [2]: > 2 h; CLint scaled at 1 μM ([2]; microsomes, read-out: CL ‘hep): 14 mL/min/kg; CLint scaled at 1 μM ([2]; microsomes, read-out: CL’int): 17 mL/min/kg |
| CC(C)=CCc1ccc(=O)c(O)cc1C(C)C [#49] | 9 |  |  |  |  |  |  |  |
| O=c1cc(NCc2ccccc2)c2cccnc2n1O [#151] | 15 | 4.7 | ** |  |  |  |  | suppression of HSV-1 replication in cell culture (HSV-1; 5 μM or less): strongly suppressed; suppression of HSV-2 replication in cell culture (HSV-2; 5 μM or less): strongly suppressed |
| C/C(=N\c1ccccc1N)c1c(C)cc(=O)n(O)c1O [#208] | 15 | 0.69 | ** | 0.15 | 2.63 | 0.11 | 0.26 | ER [2]: <0.1; Non-P450 turn-over [2]: No; half-life at 1 μM [2]: > 2 h; CLint scaled at 1 μM ([2]; liver microsomes, read-out: CL ‘hep): 163 mL/min/kg |
| Cc1ccc(O)c(=O)c(O)c1 [#210] | 71 | 1.5 | ** |  |  |  |  |  |
| Cc1cc(COc2ccc(Oc3ccc(Cl)cc3)cc2)n(O)c(=O)c1 [#211] | 30 | 13 | ** | 0.08 | 1.6 | 0.04 | 1.81 |  |
| Nc1nc2c(ncn2COCCO)c(=O)[nH]1 [Acyclovir, acyclovir, reference compound] |  |  |  | 3.61 | 5.39 | 3.91 | 5.25 | CC50 at 24 h (in vitro): > 100 µM; HSV-1 Log10 suppression 5 μM (HSV-1; listed as acyclovir): 4.22 log10; HSV-2 Log10 suppression 5 μM (HSV-2; listed as acyclovir): 3.6 log10; inhibition of TK-mutant HSV-2 [5]: little effect |
| NCc1cccc(-c2ccc(Cc3cc(=O)n(O)c4ncccc34)cc2)c1 [Compound 153] | 10 | 4.1 | ** |  |  |  |  |  |
